Results on 16 compounds are retold here after ChEMBL document CHEMBL4417631, “Oral peptide inhibitors of interleukin-23 receptor and their use to treat inflammatory bowel diseases” (2017).

Each structure is given as a SMILES string. Where a SMILES comes first, the peptide text is derived from it. [ ]: non-standard residue; d: D form. The star is where a group is joined. Palmitoyl = CCCCCCCCCCCCCCCC(=O)*; hLeu = CC(C)CC[C@H](N)C(=O)O

The test concerns the target T1, Interleukin-23 receptor (Homo sapiens, UniProt Q5VWK5).
T1 sequence (Q5VWK5 whole entry): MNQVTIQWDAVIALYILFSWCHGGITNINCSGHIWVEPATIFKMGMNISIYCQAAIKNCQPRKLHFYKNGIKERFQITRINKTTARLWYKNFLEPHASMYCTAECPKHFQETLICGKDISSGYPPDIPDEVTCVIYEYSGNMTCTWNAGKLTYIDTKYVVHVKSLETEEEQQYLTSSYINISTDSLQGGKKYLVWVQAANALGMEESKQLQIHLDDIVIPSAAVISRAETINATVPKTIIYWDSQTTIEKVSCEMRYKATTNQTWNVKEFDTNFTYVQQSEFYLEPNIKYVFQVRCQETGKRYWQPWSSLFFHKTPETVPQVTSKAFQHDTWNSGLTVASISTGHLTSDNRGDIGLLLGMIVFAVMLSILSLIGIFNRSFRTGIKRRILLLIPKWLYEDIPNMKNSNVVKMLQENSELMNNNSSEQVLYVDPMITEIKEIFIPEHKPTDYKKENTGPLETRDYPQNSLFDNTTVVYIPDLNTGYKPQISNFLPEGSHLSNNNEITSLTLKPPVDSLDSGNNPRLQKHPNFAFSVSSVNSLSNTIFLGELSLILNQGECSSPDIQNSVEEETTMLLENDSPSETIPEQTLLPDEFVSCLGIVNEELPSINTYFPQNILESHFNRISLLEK
The test is described as follows: Inhibition of interleukin-23 binding to human interleukin-23 receptor incubated for 2 hrs by competitive binding ELISA.
On to `CC(C)[C@H](NC(=O)[C@H](Cc1cnc[nH]1)NC(=O)[C@H](Cc1c[nH]c2ccccc12)NC(=O)[C@H](Cc1ccc(O)cc1)NC(=O)[C@H](CS)NC(=O)[C@H](CCC(=O)O)NC(=O)[C@H](Cc1c[nH]c2ccccc12)NC(=O)[C@H](CC(N)=O)NC(=O)CNC(=O)[C@@H](N)CS)C(=O)N[C@@H](Cc1ccc(O)cc1)C(=O)NCC(N)=O` (H-CGNWECYWHVYG-NH2), for which the IC50 was more than 1 µM.

The compound `CC(=O)N[C@@H](CS)C(=O)N[C@@H](CCC(N)=O)C(=O)N1CCC[C@H]1C(=O)N[C@@H](Cc1c[nH]c2ccccc12)C(=O)N[C@@H](CCC(N)=O)C(=O)N[C@@H](CS)C(=O)N[C@@H](Cc1ccc(O)cc1)C(=O)N[C@@H](Cc1c[nH]c2ccccc12)C(=O)N[C@@H](CCC(C)C)C(=O)N[C@@H](CCC(=O)O)C(=O)N[C@@H](CC(N)=O)C(=O)NCC(N)=O` (Ac-CQPWQCYW[hLeu]ENG-NH2) came in with an IC50 of more than 10 µM.

Consider `CC(=O)N[C@H](C(=O)N[C@@](C)(CCCN)C(=O)N[C@H](C(=O)N[C@@H](Cc1c[nH]c2ccccc12)C(=O)N[C@@H](CCC(N)=O)C(=O)N[C@H](C(=O)N[C@@H](Cc1ccc(OCCN)cc1)C(=O)N[C@@H](Cc1ccc2ccccc2c1)C(=O)N[C@@](C)(CCCCN)C(=O)N[C@@H](CCC(=O)O)C(=O)N[C@@H](CC(N)=O)C(=O)NCC(N)=O)C(C)(C)S)[C@@H](C)O)C(C)(C)S`, for which the 50% inhibitory concentration (IC50) was in the range of 0.1 to 1 µM.

`CC(=O)N[C@@H](CS)C(=O)N[C@@H](CCC(N)=O)C(=O)N[C@H](C(=O)N[C@@H](Cc1c[nH]c2ccccc12)C(=O)N[C@@H](CCC(N)=O)C(=O)N[C@@H](CS)C(=O)N[C@@H](Cc1ccc(O)cc1)C(=O)N[C@@H](Cc1c[nH]c2ccccc12)C(=O)N[C@@H](CCCNC(=N)N)C(=O)N[C@@H](CCCN)C(=O)N[C@@H](CC(N)=O)C(=O)NCC(=O)NCCOCC(=O)N[C@H](CCCCN)C(N)=O)[C@@H](C)O` yielded a half-maximal inhibitory concentration (IC50) of less than 0.5 µM.

Compound `CC(=O)N[C@@H](CS)C(=O)N[C@@H](CCC(N)=O)C(=O)N[C@H](C(=O)N[C@@H](Cc1c[nH]c2ccccc12)C(=O)N[C@@H](CCC(N)=O)C(=O)N[C@@H](CS)C(=O)N[C@@H](Cc1cnc[nH]1)C(=O)N[C@@H](Cc1c[nH]c2ccccc12)C(=O)N[C@@H](CCC(C)C)C(=O)N[C@@H](CCC(=O)O)C(=O)N[C@@H](CC(N)=O)C(=O)NCC(N)=O)[C@@H](C)O` showed an IC50 of 6 µM.

On to `CC(C)[C@H](NC(=O)[C@H](Cc1c[nH]c2ccccc12)NC(=O)[C@@H](NC(=O)[C@H](Cc1cnc[nH]1)NC(=O)[C@@H](N)CS)[C@@H](C)O)C(=O)N[C@@H](CS)C(=O)N[C@@H](Cc1ccc(O)cc1)C(=O)N[C@@H](Cc1c[nH]c2ccccc12)C(=O)N[C@@H](Cc1cnc[nH]1)C(=O)N[C@@H](CCC(=O)O)C(=O)N[C@@H](Cc1ccccc1)C(=O)N[C@@H](CO)C(N)=O` (H-CHTWVCYWHEFS-NH2), for which the concentration for half-maximal inhibition (IC50) is more than 1 µM.

Turning to `C[C@@H](O)[C@H](NC(=O)[C@H](CCC(N)=O)NC(=O)[C@@H](N)CS)C(=O)N[C@@H](Cc1c[nH]c2ccccc12)C(=O)N[C@@H](CCC(N)=O)C(=O)N[C@@H](CS)C(=O)N[C@@H](Cc1ccc(O)cc1)C(=O)N1Cc2ccccc2C[C@H]1C(=O)N[C@@H](CCCN)C(=O)N[C@@H](CCCCN)C(=O)N[C@@H](Cc1ccccc1)C(=O)NCC(=O)NCCOCC(=O)N[C@H](CCCCN)C(N)=O`, the half-maximal inhibitory concentration (IC50) is more than 30 µM.

For `CC(=O)N[C@@H](CS)C(=O)N[C@@H](C)C(=O)N[C@@H](CC(=O)O)C(=O)N[C@@H](Cc1c[nH]c2ccccc12)C(=O)N[C@H](C(=O)N[C@@H](CS)C(=O)N[C@@H](Cc1ccc(O)cc1)C(=O)N[C@@H](Cc1ccc(C(N)=O)cc1)C(=O)N[C@@H](CCCN)C(=O)N[C@@H](CN)C(=O)N[C@@H](Cc1ccccc1)C(=O)NCC(=O)NCCOCC(=O)N[C@H](CCCCN)C(N)=O)C(C)C`, the IC50 turned out to be 6 µM.

The compound `CC(C)[C@H](NC(=O)[C@H](Cc1cnc[nH]1)NC(=O)[C@H](Cc1c[nH]c2ccccc12)NC(=O)[C@H](Cc1ccc(O)cc1)NC(=O)[C@H](CS)NC(=O)[C@@H](NC(=O)[C@H](Cc1c[nH]c2ccccc12)NC(=O)[C@@H](NC(=O)[C@H](CCCNC(=N)N)NC(=O)[C@@H](N)CS)[C@@H](C)O)[C@@H](C)O)C(=O)N[C@@H](Cc1ccc(O)cc1)C(=O)NCC(N)=O` (H-CRTWTCYWHVYG-NH2) yielded a half-maximal inhibitory concentration (IC50) of 0.5 to 1 µM.

With `CC(C)[C@H](NC(=O)[C@H](Cc1c[nH]c2ccccc12)NC(=O)[C@H](CC(=O)O)NC(=O)[C@@H](NC(=O)[C@@H](N)CS)[C@@H](C)O)C(=O)N[C@@H](CS)C(=O)N[C@@H](Cc1ccc(O)cc1)C(=O)N[C@@H](Cc1c[nH]c2ccccc12)C(=O)N[C@@H](Cc1cnc[nH]1)C(=O)N[C@@H](CCC(=O)O)C(=O)N[C@@H](Cc1ccc(O)cc1)C(=O)N[C@@H](CO)C(N)=O` (H-CTDWVCYWHEYS-NH2), the 50% inhibitory concentration (IC50) was more than 1 µM.

Compound `CC(=O)N[C@@H](CS)C(=O)N[C@@H](C)C(=O)N[C@@H](CC(=O)O)C(=O)N[C@@H](Cc1c[nH]c2ccccc12)C(=O)N[C@H](C(=O)N[C@@H](CS)C(=O)N[C@@H](Cc1ccc(O)cc1)C(N)=O)C(C)C` gave an IC50 of more than 30 µM.

On to `CC(=O)NCCCC[C@H](NC(=O)[C@](C)(CCCCN)NC(=O)[C@H](Cc1ccc2ccccc2c1)NC(=O)[C@H](CCc1ccc(O)cc1)NC(=O)[C@@H]1CSCC[C@H](NC(C)=O)C(=O)N[C@@H](CCC(N)=O)C(=O)N[C@@H]([C@@H](C)O)C(=O)N[C@@H](Cc2c[nH]c3ccccc23)C(=O)N[C@@H](CCC(N)=O)C(=O)N1)C(=O)N[C@@H](CC(N)=O)C(=O)NCC(N)=O`, for which the IC50 was more than 1 µM.

Turning to `CC(=O)N[C@@H](CS)C(=O)N[C@@H](CCC(N)=O)C(=O)N[C@H](C(=O)N[C@@H](Cc1c[nH]c2ccccc12)C(=O)N[C@@H](CCC(N)=O)C(=O)N[C@@H](CS)C(=O)N(C)[C@@H](Cc1ccc(O)cc1)C(=O)N[C@@H](Cc1c[nH]c2ccccc12)C(=O)N[C@@H](CCC(C)C)C(=O)N[C@@H](CCC(=O)O)C(=O)N[C@@H](CC(N)=O)C(=O)NCC(N)=O)[C@@H](C)O`, the IC50 is more than 30 µM.

`CCCCCCCCCCCCCCCC(=O)NCCCC[C@H](NC(=O)[C@H](CCC(=O)O)NC(=O)[C@H](CC(C)C)NC(=O)[C@H](Cc1c[nH]c2ccccc12)NC(=O)[C@H](Cc1ccc(O)cc1)NC(=O)[C@H](CS)NC(=O)[C@H](CCC(N)=O)NC(=O)[C@H](Cc1c[nH]c2ccccc12)NC(=O)[C@@H](NC(=O)[C@H](CCC(N)=O)NC(=O)[C@H](CS)NC(C)=O)[C@@H](C)O)C(=O)NCC(N)=O` (Ac-CQTWQCYWLEK(Palmitoyl)G-NH2) had an IC50 of more than 6 µM.

As to `CC(=O)NC1CC/C=C\CC(C(=O)N[C@@H](Cc2ccc(O)cc2)C(=O)N[C@@H](Cc2c[nH]c3ccccc23)C(=O)N[C@@H](CCCNC(=N)N)C(=O)N[C@@H](CCCCN)C(=O)N[C@@H](Cc2ccccc2)C(=O)NCC(=O)NCCOCC(=O)N[C@H](CCCCN)C(N)=O)NC(=O)[C@H](CCC(N)=O)NC(=O)[C@H](Cc2c[nH]c3ccccc23)NC(=O)[C@H]([C@@H](C)O)NC(=O)[C@H](CCCNC(=N)N)NC1=O` (stereo partly specified), the IC50 lay within 0.1 to 1 µM.

`CC(C)CC[C@H](NC(=O)[C@H](Cc1c[nH]c2ccccc12)NC(=O)[C@H](Cc1ccc(O)cc1)NC(=O)[C@H](CS)NC(=O)[C@H](CCC(N)=O)NC(=O)[C@H](Cc1c[nH]c2ccccc12)NC(=O)[C@@H](NC(=O)[C@H](CCC(N)=O)NC(=O)[C@@H](N)CS)[C@@H](C)O)C(=O)N[C@@H](CCC(=O)O)C(=O)N[C@@H](CC(N)=O)C(=O)NCC(=O)NCCOCC(=O)N[C@H](CCCCN)C(N)=O` yielded a concentration for half-maximal inhibition (IC50) of less than 0.5 µM.
